The text below walks through data of US20260337228A1, “COMPOSITION AND METHOD FOR TREATING NEONATAL HYPOXIC-ISCHEMIC ENCEPHALOPATHY” (SUZHOU GLENKOL PHARMA TECHNOLOGY CO., LTD., priority 2023, published 2026).

For assay [1], the system named is cerebral cortical neural cells. Briefly: Lactate dehydrogenase (LDH) cytotoxicity assay after oxygen-glucose deprivation. The assay is classed as cell-based, neonatal rat. Particulars: 2 mM NaP, positive control; 24 hours after injury; vs untreated oxygen-glucose deprivation group, p<0.05. How it is done: Culture of cerebral cortical neural cells: The brains of neonatal rats were dissected, the meninges removed, and the cerebral cortex isolated. The cortical tissues were digested with papain, single cells collected, and plated onto lysine-treated coverslips and cultured in Neurobasal™ serum-free medium. To mimic hypoxic-ischemic encephalopathy injury in vitro, the Neurobasal medium was replaced with DMEM medium at 7 days in vitro (DIV7), and cells were cultured under 21% O2/5% CO2 for 2.5 hours to serve as the control group, or Neurobasal medium replaced with glucose-free DMEM medium and cells cultured under 0% O2/5% CO2 for 2.5 hours to serve as the oxygen-glucose deprivation treatment group. After treatment, both groups were returned to Neurobasal medium and cultured normally under 21% O2/5% CO2 for 24 hours. […]
Lactate dehydrogenase (LDH) kit cytotoxicity assay: After 24 hours of normal culture, collect the cell culture supernatant from each group, add the LDH assay working solution, mix thoroughly, and incubate at room temperature in the dark for 30 minutes. Then, measure the absorbance at 490 nm and calculate the LDH release level, which indicates cytotoxicity. […]

In assay [2] the test system is cerebral cortical neural cells. Briefly: MTT assay for cell viability after oxygen-glucose deprivation. The assay is classed as cell-based, neonatal rat. Particulars: 2 mM NaP, positive control; 24 hours after injury; vs untreated oxygen-glucose deprivation group, p<0.05. The method, then: Culture of cerebral cortical neural cells: The brains of neonatal rats were dissected, the meninges removed, and the cerebral cortex isolated. The cortical tissues were digested with papain, single cells collected, and plated onto lysine-treated coverslips and cultured in Neurobasal™ serum-free medium. To mimic hypoxic-ischemic encephalopathy injury in vitro, the Neurobasal medium was replaced with DMEM medium at 7 days in vitro (DIV7), and cells were cultured under 21% O2/5% CO2 for 2.5 hours to serve as the control group, or Neurobasal medium replaced with glucose-free DMEM medium and cells cultured under 0% O2/5% CO2 for 2.5 hours to serve as the oxygen-glucose deprivation treatment group. After treatment, both groups were returned to Neurobasal medium and cultured normally under 21% O2/5% CO2 for 24 hours.
S1 Pretreatment: At the start of the oxygen-glucose deprivation treatment, cells were simultaneously treated with S1 (final concentrations of 0.01 μM, 0.1 μM, 1 μM, or 10 μM), or with the scrambled peptide Tat-NRRRNSKLQHKKY (SEQ ID NO: 10), or with NaP (Davunetide) as a control.
MTT assay for cell viability: After 24 hours of normal culture, MTT solution was added to each group and cultured for an additional 4 hours. […] Then, measure the absorbance at 490 nm and calculate the MTT formation level, which indicates cell viability. […]

`CC[C@H](C)[C@H](NC(=O)[C@H](CO)NC(=O)[C@@H](NC(=O)[C@@H]1CCCN1C(=O)[C@H](C)NC(=O)[C@@H](N)CC(N)=O)C(C)C)C(=O)N1CCC[C@H]1C(=O)N[C@@H](CCC(N)=O)C(=O)O` [NaP, Davunetide]: the LDH release levels entry in assay [1] is given as “significantly reduced LDH release levels”. Further, the MTT formation levels result in assay [2] is “significantly increased MTT formation levels”.
